Laboratory results published in paper PMC3670040, “Structure of Lipid Kinase p110β/p85β Elucidates an Unusual SH2-Domain-Mediated Inhibitory Mechanism” (Molecular Cell, 2011).
Square brackets hold non-standard residues; d marks the D form. Ends that are not written are not given here. pY = N[C@@H](Cc1ccc(OP(=O)(O)O)cc1)C(=O)O

System: p110β
Test: Transcreener ADP formation (fluorescence polarization), diC8-PIP2/POPS liposomes, mouse p110β complexes
Format: biochemical
Settings: ADP formation, 10 μM, Figure 1B
Description: Figure 1 Inhibition of p110β by p85-Type Regulatory Subunits and Activation of the Complexes by RTK Phosphopeptide (A) Domain organization of p110β and the regulatory subunits p85α, p85β, and p55γ. The color scheme for the domains is used for all figures, unless otherwise stated. […] The inhibition is released upon addition of the 10 μM PDGFR pY2. […] The y axis is expressed as a change in fluorescence polarization (ΔmP), which is obtained by subtracting the observed polarization for the construct at a given enzyme concentration from the maximum fluorescence polarization for that construct. The plateau in these assays arises due to the competitive nature of the ADP detection system, based on displacement of ADP-Alexa 633 tracer from the ADP^2-antibody by ADP generated during the PI3K assay (see Supplemental Experimental Procedures). All measurements were done in triplicates, and the error bars indicate the standard error of the mean (SEM). […]
Figure 3 Mutation Y677A in p85β-cSH2 Releases Inhibitory Effect on p110β (A) Kinase activity (ADP formation) of p110β in a complex with p85β-icSH2-Y677A (Y677A-ic) compared to the wild-type complex (ic) in the absence and presence of 10 μM PDGFR pY2 (ADP formation on the y axis expressed as in Figure 1B). […]
The lipid kinase activity was determined using the Transcreener ADP2 FP Assay (BellBrook Labs, Madison, WI) according to manufacturer‟s specifications. This non-radioactive assay measures activity by quantitating the amount of ADP formed. The ADP formed by PI3K competes with fluorescent ADP tracer for binding to an anti-ADP antibody, thereby decreasing fluorescence polarization. Because of the competitive nature of this assay, the change in fluorescence polarization signal is not a linear function of enzyme activity, and a convenient measure of enzyme activity is the EC50, or the concentration of enzyme necessary to give half-maximal inhibition of labeled ADP binding to the antibody, for a given concentration of substrate and a fixed time of reaction at initial rate. […]

ESDGG[pY]MDMSKDESID[pY]VPMLDMKGDIKYADIE [pY2, bis-phosphopeptide (PDGFR 735–767, with pY740 and pY751)]
effect on activity of p110β/p85β-iSH2 or ΔABD-p110β: did not affect the activity
effect on kinase activity of complexes containing SH2 domains (nicSH2, niSH2, or icSH2 complexes): stimulates kinase activity
